Reference: the NIST ThermoML archive (doi:10.1016/j.tca.2018.11.018)

Assay: xn = mol fraction of the nth substance listed
Details: 100 kPa, Liquid; for viscosity: Falling or rolling sphere viscometry; for mass density: Vibrating tube method

CC[N+]1(C)CCCCC1.[Br-] [N-ethyl-N-methylpiperidinium bromide] + O
Details	mass density [kg/m3]	viscosity [mPa·s]
298.15 K, x1 = 0.02	1042.3	1.263
298.15 K, x1 = 0.046	1088.3	2.026
298.15 K, x1 = 0.065	1116.9	2.813
298.15 K, x1 = 0.085	1141.4	3.992
298.15 K, x1 = 0.11	1167.4	6.16
298.15 K, x1 = 0.14	1192.2	11.35
298.15 K, x1 = 0.18	1217.8	20.55
298.15 K, x1 = 0.221	1237.8	36.06
298.15 K, x1 = 0.27	1255.2	68.76
298.15 K, x1 = 0.321	1268.9	135.3
303.15 K, x1 = 0.02	1040.5	1.124
303.15 K, x1 = 0.046	1085.9	1.783
303.15 K, x1 = 0.065	1114.2	2.444
303.15 K, x1 = 0.085	1138.5	3.419
303.15 K, x1 = 0.11	1164.3	5.175
303.15 K, x1 = 0.14	1189	9.449
303.15 K, x1 = 0.18	1214.4	16.67
303.15 K, x1 = 0.221	1234.4	28.38
303.15 K, x1 = 0.27	1251.8	51.92
303.15 K, x1 = 0.321	1265.5	98.65
308.15 K, x1 = 0.02	1038.6	1.011
308.15 K, x1 = 0.046	1083.5	1.59
308.15 K, x1 = 0.065	1111.5	2.147
308.15 K, x1 = 0.085	1135.5	2.967
308.15 K, x1 = 0.11	1161.2	4.41
308.15 K, x1 = 0.14	1185.7	7.861
308.15 K, x1 = 0.18	1211	13.6
308.15 K, x1 = 0.221	1230.9	22.48
308.15 K, x1 = 0.27	1248.4	39.91
308.15 K, x1 = 0.321	1262.1	73.14
313.15 K, x1 = 0.02	1036.4	0.915
313.15 K, x1 = 0.046	1081.1	1.421
313.15 K, x1 = 0.065	1108.7	1.901
313.15 K, x1 = 0.085	1132.5	2.595
313.15 K, x1 = 0.11	1158	3.8
313.15 K, x1 = 0.14	1182.3	6.584
313.15 K, x1 = 0.18	1207.5	11.17
313.15 K, x1 = 0.221	1227.4	18.06
313.15 K, x1 = 0.27	1244.9	31
313.15 K, x1 = 0.321	1258.6	54.37
318.15 K, x1 = 0.02	1034.1	0.834
318.15 K, x1 = 0.046	1078.7	1.279
318.15 K, x1 = 0.065	1105.9	1.697
318.15 K, x1 = 0.085	1129.5	2.287
318.15 K, x1 = 0.11	1154.8	3.301
318.15 K, x1 = 0.14	1178.9	5.574
318.15 K, x1 = 0.18	1204.1	9.251
318.15 K, x1 = 0.221	1223.9	14.7
318.15 K, x1 = 0.27	1241.4	24.63
318.15 K, x1 = 0.321	1255.2	42.07
323.15 K, x1 = 0.02	1031.6	0.767
323.15 K, x1 = 0.046	1075.9	1.162
323.15 K, x1 = 0.065	1102.9	1.522
323.15 K, x1 = 0.085	1126.3	2.045
323.15 K, x1 = 0.11	1151.5	2.895
323.15 K, x1 = 0.14	1175.5	4.742
323.15 K, x1 = 0.18	1200.6	7.76
323.15 K, x1 = 0.221	1220.4	12.15
323.15 K, x1 = 0.27	1237.9	19.99
323.15 K, x1 = 0.321	1251.8	33.03
328.15 K, x1 = 0.02	1029	0.709
328.15 K, x1 = 0.046	1073	1.063
328.15 K, x1 = 0.065	1099.9	1.378
328.15 K, x1 = 0.085	1123.1	1.83
328.15 K, x1 = 0.11	1148.1	2.563
328.15 K, x1 = 0.14	1172.1	4.087
328.15 K, x1 = 0.18	1197	6.616
328.15 K, x1 = 0.221	1216.9	10.15
328.15 K, x1 = 0.27	1234.4	16.44
328.15 K, x1 = 0.321	1248.3	26.76
333.15 K, x1 = 0.02	1026.3	0.656
333.15 K, x1 = 0.046	1070.2	0.976
333.15 K, x1 = 0.065	1096.7	1.249
333.15 K, x1 = 0.085	1119.9	1.65
333.15 K, x1 = 0.11	1144.7	2.285
333.15 K, x1 = 0.14	1168.6	3.555
333.15 K, x1 = 0.18	1193.5	5.691
333.15 K, x1 = 0.221	1213.4	8.658
333.15 K, x1 = 0.27	1230.9	13.81
333.15 K, x1 = 0.321	1244.9	21.95
338.15 K, x1 = 0.02	1023.5	0.616
338.15 K, x1 = 0.046	1067.1	0.9
338.15 K, x1 = 0.065	1093.5	1.142
338.15 K, x1 = 0.085	1116.9	1.495
338.15 K, x1 = 0.11	1141.4	2.046
338.15 K, x1 = 0.14	1165.1	3.13
338.15 K, x1 = 0.18	1189.9	4.925
338.15 K, x1 = 0.221	1209.8	7.418
338.15 K, x1 = 0.27	1227.4	11.66
338.15 K, x1 = 0.321	1241.4	18.17
343.15 K, x1 = 0.02	1020.4	0.579
343.15 K, x1 = 0.046	1063.9	0.835
343.15 K, x1 = 0.065	1090.3	1.05
343.15 K, x1 = 0.085	1113.8	1.363
343.15 K, x1 = 0.11	1137.9	1.845
343.15 K, x1 = 0.14	1161.5	2.616
343.15 K, x1 = 0.18	1186.3	4.343
343.15 K, x1 = 0.221	1206.2	6.433
343.15 K, x1 = 0.27	1223.9	10.03
343.15 K, x1 = 0.321	1238	15.35
348.15 K, x1 = 0.02	1016.6	0.548
348.15 K, x1 = 0.046	1060.6	0.778
348.15 K, x1 = 0.065	1087	0.967
348.15 K, x1 = 0.085	1110.3	1.247
348.15 K, x1 = 0.11	1134.3	1.67
348.15 K, x1 = 0.14	1157.9	2.352
348.15 K, x1 = 0.18	1182.7	3.798
348.15 K, x1 = 0.221	1202.6	5.613
348.15 K, x1 = 0.27	1220.3	8.668
348.15 K, x1 = 0.321	1234.5	13.11
